From publication PMC6946680, “Modulation of brain cation-Cl^− cotransport via the SPAK kinase inhibitor ZT-1a” (Nature Communications, 2020) come the findings set out here.

“And” between values parts separate entries of the source, which are not always exact repeats. Equal values may be shown once.

Experiment [1] deals with KCC3 pThr1048. Kind of experiment: Immunoblot of KCC site 2 phosphorylation (KCC3 Thr1048) in HEK-293 cells transfected with FLAG-KCC3. Format: cell-based, human. To be noted: single replicates.
The subject of experiment [2] is mouse model of ischemic stroke (tMCAO). Kind of experiment: Infarct volume and hemispheric swelling (TTC) 24 h after tMCAO. Format: in vivo. The following applies: for Infarct volume (mm3): Fig 9b; for Infarct volume (mm3) / Hemisphere swelling (%): individual mice; for Hemisphere swelling (%): Fig 9c.
In experiment [3] the test system is KCC3 pThr1048. The experiment is described as follows: Pharmacodynamic study, KCC3 phosphorylation in brain of naive mice. Format: in vivo, mouse. The method, then: (§1) To define ZT-1a efficacy in naive mice in vivo, we examined phosphorylation of SPAK, NKCC1, and NCC in kidney, and phosphorylation of SPAK, NKCC1, and KCC3 in brain, after intraperitoneal (i.p.) administration of either ZT-1a (10, 30, 50, and 100 mg/kg) or Closantel (50 mg/kg as a reference). […]
(§2) 5. Pharmacodynamic (PD) study
(§3) Male C57BL/6j wild-type mice (6 weeks old, Charles River Laboratories Edinburgh UK) were treated with ZT-1a (in DMSO, Sigma) by subcutaneous injection at doses of 0, 3, 10, 30, 50 and 100 mg/kg. 50 mg/kg Closantel was administered as a comparative control. Vehicle control mice were treated with an equal volume of DMSO solution. One hour after administration, mice were sacrificed by cervical dislocation, and kidney and brain tissues were rapidly dissected and snap-frozen in liquid nitrogen. Age- […]
(§4) free conditions at the University of Dundee (UK) as described in our recent study1. Animal experiments and breeding were approved by the University of Dundee ethical committee and performed under a […]
(§5) Policy on the Care, Welfare and Treatment of Animals, and regulations set by the University of Dundee and the U.K. Home Office. […]
(§6) Brain and kidney tissues were collected at 60 min post injection, and proteins subjected to immunoblot were probed with antibodies specific for phosphorylated forms of SPAK,

The next experiment has as its system SPAK phosphorylation. The experiment is described as follows: Pharmacodynamic study, SPAK phosphorylation in brain of naive mice. Format: in vivo, mouse. To be noted: Fig S8a (brain); 50 mg/kg. The method, then:
as §1, §2, §3, §4, §5, §6

The subject of the next experiment is NKCC1 pThr203/207/212. The experiment is described as follows: Immunoblot of NKCC1 p-Thr203/Thr207/Thr212 in HEK-293 cells. To be noted: single replicates. Format: cell-based, human. (In general: Immunoblotting shows a protein as a band on a membrane.)

Take `Cc1cc(C(C#N)c2ccc(Cl)cc2)c(Cl)cc1NC(=O)c1cc(I)cc(I)c1O` (centres unmarked) [Closantel, reference compound]: the “T1007/KCC2 band intensity ratio” value in the experiment on KCC3 pThr1048 [1] (Hypotonic low Cl, 1 uM) was 0.34 and 0.36 and 0.343 and 0.37; in the experiment with KCC3 pThr1048 [1] (Hypotonic low Cl, 3 uM), 0.16 and 0.144 and 0.163 and 0.152; in the experiment with KCC3 pThr1048 [1] (Hypotonic low Cl, 10 uM), 0.113 and 0.046 and 0.08 and 0.1; with KCC3 pThr1048 [1] (Isotonic control, 1 uM) it was 0.358 (2×) and 0.326 and 0.311; with KCC3 pThr1048 [1] (Isotonic control, 3 uM), 0.141 and 0.106 and 0.123 and 0.134; in the experiment with KCC3 pThr1048 [1] (Isotonic control, 10 uM) it was 0.071 and 0.062 and 0.054 and 0.067. The “infarct volume and hemispheric swelling” value in experiment [2] (Closantel 0.1 mg/kg) was “ineffective”; in experiment [2] (Closantel 1.0 or 2.5 mg/kg at 3 and 8 h post reperfusion) it was “reduced infarct volume and hemispheric swelling in a dose-dependent manner”. Besides, the “Infarct volume (mm3)” value in experiment [2] (group Closantel 0.1) was 52.64 mm3 and 37.67 mm3 and 66.15 mm3 and 91.58 mm3 and 31.83 mm3 and 54.68 mm3 and 37.74 mm3 and 60.16 mm3; in experiment [2] (group Closantel 1.0), 45.07 mm3 and 60.3 mm3 and 40.86 mm3 and 27.89 mm3 and 44.96 mm3 and 50.26 mm3 and 35.08 mm3 and 36.9 mm3; in experiment [2] (group Closantel 2.5) it was 19.91 mm3 and 50.06 mm3 and 19.99 mm3 and 41.45 mm3 and 32.49 mm3. The “Hemisphere swelling (%)” value was 17.46% and 13.77% and 21.57% and 18.71% and 11.16% and 11.73% and 9.03% and 12% in experiment [2] (group Closantel 0.1); 14.03% and 8.76% and 11.37% and 10.48% and 8.67% and 13.59% and 10.61% and 15.28% in experiment [2] (group Closantel 1.0); 3.84% and 16.57% and 8.91% and 6.76% and 4.41% in experiment [2] (group Closantel 2.5). For the same molecule, the “KCC3 phosphorylation (pThr1048) in naive brains” value in the experiment on KCC3 pThr1048 [3] (60 min after administration) is “neither drug had reduced”. Besides, in the experiment with KCC3 pThr1048 [3] (Fig S8a (brain), 50 mg/kg), the “pTh1048 / KCC3” value was 0.84 and 0.87 and 0.95 and 0.91. In addition, in the experiment on SPAK phosphorylation, the “pSer373 / SPAK” value was 0.54 and 0.68 and 0.62 and 0.52. Moreover, the “pNKCC1/NKCC1 band intensity ratio” value with NKCC1 pThr203/207/212 (Hypotonic low Cl, 1 uM) was 1.007 and 1.145 and 1.103 and 1.12; in the experiment on NKCC1 pThr203/207/212 (Hypotonic low Cl, 3 uM), 0.767 and 0.631 and 0.6563 and 0.721; in the experiment with NKCC1 pThr203/207/212 (Hypotonic low Cl, 10 uM), 0.313 and 0.28 and 0.243 and 0.21; in the experiment with NKCC1 pThr203/207/212 (Isotonic control, 1 uM), 0.204 and 0.171 and 0.186 and 0.195; in the experiment on NKCC1 pThr203/207/212 (Isotonic control, 3 uM), 0.054 and 0.067 and 0.053 and 0.062; in the experiment on NKCC1 pThr203/207/212 (Isotonic control, 10 uM), 0.03 and 0.047 and 0.044 and 0.038.
